Measurements from patent US5849865A, “Peptides for altering bone resorption, angiogenesis and restenosis” (La Jolla Cancer Research Foundation, priority 1995, dated 1998).
Entries after “also recorded” stand apart in the source; their conditions may differ. Where a SMILES comes first, the peptide text is derived from it. Bridges are numbered along the chain shown (N, C = ends). [ ]: non-standard residue; d: D form. Tic = O=C(O)[C@@H]1Cc2ccccc2CN1; Pen = CC(C)(S)[C@H](N)C(=O)O; Mpa = O=C(O)CCS

Key:
α5 β1 (FnR) = target: T1, α5 β1 (FnR) (Homo sapiens, UniProt P05556+P08648); assay: α5 β1 ELISA (competitive); assay type: binding; conditions: comparison of receptor ELISAs
T1 construct: Fibronectin receptor (FnR) was purified from 100 mM octyl-glucopyranoside-extracted human placenta; from tissue
Procedure: Peptide binding to purified human α5 β1 (FnR) also as determined using a competitive ELISA. In these assays, […] was immobilized to the wells and the binding of solubilized FnR in the presence of various concentrations of a peptide analogue was determined using a mouse monoclonal antibody to human β1 (clone P4C10; Gibco) and specific binding was visualized using a second antibody.
Microtiter wells were coated at RT by adding 100 μl of 2 μg/ml human Fn in TBS and incubating the plates overnight at 4° C. Following incubation, the plates were washed 3× with TBS/"TWEEN 20". RGD peptides were diluted in TBS containing 20 mM OG and 2 mM MnCl2 and 50 μl was added to wells at 10-fold serial dilutions. FnR was diluted in the same buffer and 50 μl was added to each well.
The plates were incubated for 3 hr at RT and washed with 300 μl TBS/"TWEEN 20". Bound receptor was incubated with 100 μl of the monoclonal anti-β1 antibody for 2 hr, then washed 3× with TBS/"TWEEN 20". […] The amount of bound second antibody was determined as described above.
The IC50 values for various RGD peptides were calculated by determining the concentration of a peptide that inhibited binding of Vn to αv β5 or αv β3 or of Fn to α5 β1 by 50%. The results of these assays are shown in FIG. 2 (columns designated "Receptor Assays").

αv β3 receptor = target: T2, αv β3 receptor (Homo sapiens, UniProt P05106+P06756); assay type: binding; conditions: comparison of IC50 values of αv β3 ELISA / JY cells with αv β5 and α5 β1 ELISAs
T2 construct: The αv β3 receptor was purified from octyl-glucopyranoside-extracted human placenta; from tissue
Procedure: Peptide binding to purified αv β3 receptor was determined by using a competitive ELISA, in which αv β3 receptor was immobilized and the binding of solubilized VN, in the presence of various concentrations of peptide analogue, was detected using a monoclonal mouse IgG anti-VN antibody and a labelled anti-mouse IgG conjugate.
96 well microtiter plates were coated overnight at RT with 100 μl/well of αv β3 receptor (0.5 μg/ml in 1×TBS, 4 mM octylglucoside, 1 mM CaCl2). The wells were blocked with 200 μl/well of 1% BSA in 1×TBS, 1 mM CaCl2 for at least 30 min. The plates were washed 2× with 1×TBS, 1 mM CaCl2. 50 μl peptide in 1×TBS, 1 mM CaCl2, 0.05% "TWEEN 20" (polyoxyethylenesorbitan monolaurate) was added in 10-fold serial dilutions. 50 μl of Vn in the same buffer then was added to each well.
The plates were incubated for 3 hr at RT, then washed 3× with 1×TBS, 0.05% "TWEEN 20". 100 μl of 8E6 (Telios) diluted to 1:6000 in 1×TBS, 0.05% "TWEEN 20" was added to the wells and the plates were incubated for 1 hr at RT. Plates were washed 3× with 1×TBS, 0.05% "TWEEN 20". Affinity purified goat anti-mouse IgG conjugated to horseradish peroxidase (100 μl/well; BioRad; Hercules Calif.) was added to each well and incubated for 1 hr at RT. Plates were washed 3× with 1×TBS, 0.05% "TWEEN 20". 100 μl/well of substrate mixture (10 mg O-phenylenediamine in 25 ml 0.1M citrate-phosphate buffer, pH 5.0, 6 μl 30% H2 O2) was added to the plates and allowed to develop. The development process was stopped by adding 50 μl to 4N H2 SO4 to each well. The plates were read at 490 nm and the data analyzed by four parameter fit.

[1] = parathyroid hormone-induced hypercalcemia in mice; assay type: in vivo, Swiss-Webster mice; conditions: parathyroidectomized mice, 0.2 mg PTH/kg i.v., peptide infused 4 hr
From the text: Parathyroid hormone (PTH) activates osteoclasts, which are involved in bone resorption. Associated with the increased osteoclast activity is an increase in serum calcium. The PTH-induced hypercalcemia assay measures the level of serum calcium, which is an indication of bone resorption in a subject (Fischer et al., Endocrinology 132:1411-1413 (1993), which is incorporated herein by reference).
Swiss-Webster mice, which had been parathyroidectomized two weeks prior to beginning the assay, were obtained from Taconic Lab Animals and Services (Germantown N.Y.). Femoral vein catheters (PE-50 fused with PE10 polyethylene tubing; Becton Dickinson; Parsippany, N.J.) were installed in the mice, flushed and locked with heparinized saline (1:10), sutured to adjacent muscle and internalized within the inguinal space of the incision before closing the incision with wound clips. […]
The experiment was initiated by feeding the mice a calcium-deficient diet overnight, then injecting the mice the following morning with a bolus of 0.2 mg PTH/kg (hPTH 1-34; Bachem; Torrance Calif.), intravenously. […] Various doses of a peptide or vehicle were infused into an animal for 4 hr, then ionized serum calcium again was measured. […] Serum calcium measurements were expressed as the difference between the value 30 min before the PTH pulse and 4 hr after peptide infusion was started. […]

[2] = series of assays of Examples II and III for potency and selectivity
From the text: Peptides of the RGDNTic (SEQ ID NO: 56) pharmacophore group are characterized, in general, as having increased potency, whereas the peptides of the pharmacophore RGDDV (SEQ ID NO: 1) group generally have higher receptor selectivity. […] As used herein, the term "potency" or "potent" means that a peptide of the invention is active at a relatively low concentration in the assays described in Examples II and III. A potent peptide of the invention can be identified, for example, using the assays described in Examples II and III.
The present invention also provides a series of in vitro and in vivo assays useful for screening a panel of peptides in order to identify peptides that can reduce or inhibit bone resorption or that can alter integrin binding such as αv β3 integrin receptor-mediated binding. Such peptides can include, for example, peptides within the pharmacophore groups exemplified herein or peptides within other pharmacophore groups. The series of assays disclosed herein is particularly useful for determining the selectivity and potency of a peptide for reducing or inhibiting bone resorption. The selectivity of a peptide for an integrin receptor involved in osteoclast binding to bone can be determined, for example, using the integrin receptor assays and cell attachment and detachment assays described herein. Use of cell-based assays in conjunction with receptor-based assays is informative because the receptor ELISAs provide useful information regarding the binding characteristics of a particular peptide toward a particular integrin and because the cell-based assays confirm that those characteristics are relevant to the αv β3 receptor or to bone resorption.

[3] = Choi et al. 1994; cited from earlier work
[4] = Fisher et al. 1993; cited from earlier work
osteoclasts = conditions: Sato et al. 1990; EP 437,367; cited from earlier work

Molecule	selectivity toward α5 β1 versus αv β5 (α5 β1 (FnR))	receptor selectivity for αv β3 as compared to αv β5 and α5 β1 (αv β3 receptor)	also measured
C[C@H](NC(=O)[C@@H]1CSSC(C)(C)[C@H](NC(=O)CN)C(=O)N[C@@H](CCCNC(=N)N)C(=O)N[C@@H](C)C(=O)N[C@@H](CCCNC(=N)N)C(=O)NCC(=O)N[C@@H](CC(=O)O)C(=O)N[C@@H](CC(N)=O)C(=O)N2CCC[C@H]2C(=O)N1)C(=O)O [compound 100] (H-G[Pen]RARGDNPCA-OH; disulfide 2-10)	more selective toward α5 β1 than toward αv β5	–	–
CC(C)[C@@H]1NC(=O)[C@H](CC(=O)O)NC(=O)[C@H](CC(=O)O)NC(=O)CNC(=O)[C@H](CCCNC(=N)N)NC(=O)[C@H](C)NC(=O)[C@H](CCCNC(=N)N)NC(=O)[C@@H](NC(=O)CN)C(C)(C)SSC[C@@H](C(=O)N[C@@H](C)C(=O)O)NC1=O [compound 138] (H-G[Pen]RARGDDVCA-OH; disulfide 2-10)	–	particularly receptor selective	–
C[C@@H]1NC(=O)[C@H](C)NC(=O)[C@@H](NC(=O)CN)C(C)(C)SSC[C@@H](C(N)=O)NC(=O)[C@H]([C@@H](C)O)NC(=O)[C@H](CC(=O)O)NC(=O)[C@H](CC(=O)O)NC(=O)CNC(=O)[C@H](CCCNC(=N)N)NC1=O [compound 186] (H-G[Pen]AARGDDTC-NH2; disulfide 2-10)	–	particularly receptor selective	–
CC(C)[C@@H]1NC(=O)[C@H](CC(=O)O)NC(=O)[C@H](CC(=O)O)NC(=O)CNC(=O)[C@H](CCCNC(=N)N)NC(=O)CCSSC[C@@H](C(N)=O)NC1=O [compound 191] ([Mpa]RGDDVC-NH2; disulfide 1-7)	–	–	PTH-induced rise in serum ionized calcium [1]: decreased the PTH-induced rise in serum ionized calcium in a dose responsive manner
CC(=O)N[C@H]1CSSC(C)(C)[C@@H](C(N)=O)NC(=O)[C@@H]2CCCN2C(=O)[C@H](CC(N)=O)NC(=O)[C@H](CC(=O)O)NC(=O)CNC(=O)[C@H](CCCNC(=N)N)NC1=O [compound 228] (Ac-CRGDNP[Pen]-NH2; disulfide 1-7)	–	particularly receptor selective	–
C[C@H](NC(=O)[C@@H]1CSSC(C)(C)[C@H](NC(=O)CN)C(=O)N[C@@H](C)C(=O)N[C@@H](C)C(=O)N[C@@H](CCCNC(=N)N)C(=O)NCC(=O)N[C@@H](CC(=O)O)C(=O)N[C@@H](CC(N)=O)C(=O)N2CCC[C@H]2C(=O)N1)C(=O)O [compound 310] (H-G[Pen]AARGDNPCA-OH; disulfide 2-10)	more selective toward α5 β1 than toward αv β5	–	–
C[C@@H]1NC(=O)[C@H](CCCNC(=N)N)NC(=O)CNC(=O)CC[C@@H](C(N)=O)NC(=O)[C@@H]2CCCN2C(=O)[C@H](CC(N)=O)NC(=O)[C@H](CC(=O)O)NC(=O)CNC(=O)[C@H](CCCNC(=N)N)NC1=O [compound 390] (GRARGDNPE-NH2; lactam N-9)	more selective toward α5 β1 than toward αv β5	–	–
CC(=O)N[C@H]1CSSC[C@@H](C(N)=O)NC(=O)[C@@H]2Cc3ccccc3CN2C(=O)[C@H](CO)NC(=O)[C@H](CC(=O)O)NC(=O)CNC(=O)[C@H](CCCNC(=N)N)NC1=O [compound 812, Ac-CRGDS(Tic)C-NH2] (Ac-CRGDS[Tic]C-NH2; disulfide 1-7)	–	–	activity of minimal-element peptides (FIG. 2) [2]: demonstrate activity; potency (active at a relatively low concentration) ([2]; summary of assays): particularly potent
N=C(N)NCCC[C@@H]1NC(=O)CC[C@@H](C(N)=O)NC(=O)[C@@H]2CCCN2C(=O)[C@H](CO)NC(=O)[C@H](CC(=O)O)NC(=O)CNC1=O [compound 825] (RGDSPE-NH2; lactam N-6)	more selective toward α5 β1 than toward αv β5	–	–
CC(=O)N[C@@H]1C(=O)N[C@@H](Cc2ccccc2)C(=O)N[C@@H](C)C(=O)N[C@@H](CCCNC(=N)N)C(=O)NCC(=O)N[C@@H](CC(=O)O)C(=O)N[C@@H](CC(N)=O)C(=O)N2CCC[C@H]2C(=O)N[C@H](C(N)=O)CSSC1(C)C [peptide 214] (Ac-[Pen]FARGDNPC-NH2; disulfide 1-9)	–	–	potency (active at a relatively low concentration) ([2]; summary of assays): particularly potent
CC(C)[C@@H]1NC(=O)[C@H](CC(=O)O)NC(=O)[C@H](CC(=O)O)NC(=O)CNC(=O)[C@H](CCCNC(=N)N)NC(=O)CNC(=O)C[C@@H](C(N)=O)NC1=O [peptide 368] (GRGDDVD-NH2; lactam N-7)	–	receptor selective for αv β3; also recorded: selective peptide; also recorded: particularly receptor selective	both potent and selective ([2]; summary of assays): both potent and selective
G(Pen)GRGDSPCA	–	–	neointimal hyperplasia [3]: can inhibit neointimal hyperplasia
echistatin	–	–	bone resorption in vivo [4]: inhibits bone resorption; bone resorption in vitro (osteoclasts): inhibits bone resorption in vitro
